Measurements taken from patent US6653442B1, “Protegrins” (priority 1993, dated 2003).
Bridge positions count the residues as written; N and C are the ends. Square brackets hold non-standard residues; d marks the D form. Ends that are not written are not given here. Peptide text beside a SMILES is read from it.

Columns and labels:
E. coli ML-35P = experiment: Radial diffusion assay in agarose gels, E. coli; format: cell-based
Protocol: Aliquots (66 μl) of each fraction were dried by vacuum centrifugation and resuspended in 6.6 μl of 0.01% acetic acid. […] The units of activity in the radial diffusion assay were measured as described; 10 units correspond to a 1 mm diameter clear zone around the sample well.

C. albicans, strain 820 = format: cell-based, Candida albicans
Protocol: Similarly, using C. albicans as a target organism, underlayers were prepared with 10 mM sodium phosphate with and without 10% normal human serum.

[1] = Radial diffusion assay in 25 mM borate buffer (Table 4); format: cell-based; conditions: buffer (25 mM borate buffer, pH 7.4)
Protocol: Contact lens solutions are typically formulated with borate buffered physiological saline and may or may not contain EDTA in addition. Protegrins in the form of the synthetic PG-3 amide and synthetic PG acid were tested generally in the assay described in Example 1 wherein all underlay gels contain 25 mM borate buffer, pH […] tryptocase soy broth ([…] TSB powder) and […]. Additions included either 100 mM NaCl, 1 mM EDTA or a combination thereof. Other test compounds used as controls were the defensin NP-1 and lysozyme. Dose response curves were determined.

Candida albicans = experiment: Radial diffusion assay in 25 mM borate buffer, Candida albicans; format: cell-based
L. monocytogenes = experiment: Radial diffusion assay in 25 mM borate buffer, L. monocytogenes; format: cell-based
[2] = tested on: E. coli ML-35 (serum sensitive); experiment: Underlay gel assay with and without normal human serum, E. coli ML-35; format: cell-based; conditions: 10 mM sodium phosphate buffer, pH 7.4
[3] = tested on: methicillin resistant Staphylococcus aureus (MRSA); experiment: Minimal inhibitory concentration, MRSA; format: cell-based
Protocol: (§1) The minimal inhibitory concentrations (MICs) of a variety of protegrins were determined against the following organisms: methicillin resistant Staphylococcus aureus (MRSA), Pseudomonas aeruginosa (Psa), vancomycin resistant Enterococcus fecium (VREF), Candida albicans (Candid) and Escherichia coli (E. Co), and are shown in Table 9.

[4] = tested on: Pseudomonas aeruginosa (Psa); experiment: Minimal inhibitory concentration, Psa; format: cell-based
Protocol: as §1

[5] = tested on: Candida albicans (Candid); experiment: Minimal inhibitory concentration, Candida; format: cell-based
Protocol: as §1

Escherichia coli (E. Co) = experiment: Minimal inhibitory concentration, E. coli; format: cell-based
Protocol: as §1

[6] = tested on: Listeria monocytogenes, strain EGD; experiment: Radial diffusion assay in agarose gels, L. monocytogenes; format: cell-based
Protocol: Aliquots (66 μl) of each fraction were dried by vacuum centrifugation and resuspended in 6.6 μl of 0.01% acetic acid. Five μl samples of this concentrate were tested for antimicrobial activity against E. coliML-3, L. monocytogenes, strain EGD and C. albicans, strain 820, using radiodiffusion and gel overlay techniques as described by Lehrer, R. I. et al. J Immunol Meth (1991) 137:167-173. […] The units of activity in the radial diffusion assay were measured as described; 10 units correspond to a 1 mm diameter clear zone around the sample well. Activity was found in a large number of fractions.
The radial diffusion assay in agarose gels described in Example 1 was also used to test the activity of the purified protegrins. FIGS. 4a, 4b and 4c show the results against three test organisms in units described as above.
The antimicrobial activity of the linearalized forms was also compared with that of the native protegrins. Both linearalized and cyclic forms of the protegrins tested continue to show antimicrobial activity, although the effectiveness of these peptides as antimicrobials depends on the nature of the target organism and on the test conditions. The antimicrobial activity of native PG-1 and its linearalized form (cam-PG-1) and PG-3 and its linearalized form (cam-PG-3) were tested according to the procedure set forth in Example 1 as described by Lehrer, R. I. et al. J Immunol Meth (1991) 137:167-173.
Using standard solid phase techniques, a protegrin having the amino acid sequence of PG-1, but wherein every amino acid is in the D form was prepared. This form of protegrin was tested against E. coli, L. monocytogenes, C. albicans and other microbes in the absence and presence of protease and otherwise as described for the radiodiffusion assay in agarose gels set forth in Example 1.
The kite and bullet PG-1 compounds prepared in Example 12 were tested for antimicrobial activity using the radial diffusion assay described in Example 1 as published by Lehrer, R. I. et al., J Immunol Meth (1991) 137:167-173, except that the underlay agars contained […] sodium phosphate buffer with a final pH of 7.4. As described in Example 1, 0.3 mg/ml tripticase soy broth powder and 1% agarose were used as well in the underlay agar. In some cases 100 mM NaCl or RPMI plus 2.5% normal human serum (NHS) was added to the agar.

[7] = tested on: lipid polysaccharide (LPS) of E. coli strain 0.55B5; experiment: Limulus amebocyte lysate (LAL) test for endotoxin binding; format: biochemical; conditions: LPS 0.05 endotoxin unit/ml
[8] = tested on: N. gonorrhoeae strains FA 19 and F 62; conditions: 45 minutes at 37° C.
Protocol: Nonpiliated transparent variants of strains FA 19 and F 62 were propagated on GCB agar plates containing glucose and iron supplements overnight at 37° C. under 3.8% V/V CO2. These strains were chosen for their adaptability to the assay.
The overnight growth is removed from the agar plate and suspended in GCB broth containing supplements and sodium bicarbonate and grown with shaking at 37° C. to mid log phase. The culture is diluted 1:100 in GCB broth to give about 10^6 CFU/ml and serial dilutions were plated onto GCB agar.
Ten μl of each dilution is added to a sterile polystyrene tube containing 90 μl of diluted bacteria and the tubes are shaken at 37° C. for 45 minutes. The contents are serially diluted 1:10 and plated on to GCB agar plates which are incubated in a CO2 incubator. CFU are counted after 24 hours and the log bactericidal activity calculated.

HIVJR-CSF and HIVJR-FL = experiment: HIV infection of human peripheral blood mononuclear cells, p24 antigen
Protocol: Briefly, the mononuclear cell fraction is recovered from normal donor leukopacs from the American Red Cross using a Ficoll-hypaque density gradient. The mononuclear cells are resuspended at 1×10^6 cells per ml in RPMI 1640 medium with 20% fetal bovine serum, 1% penn/strep with fungizone and 0.5% PHA and incubated 24 hours at 37° C. in 5% CO2. The cells are centrifuged, washed and then expanded for 24 hours in growth medium.
Non-laboratory adapted, cloned HIVJR-CSF and HIVJR-FL were electroporated into the human peripheral blood mononuclear cells prepared as described above. Titers were determined and in general, multiplicities of infection (MOI) of about 4,000 infectious units per cell are used (which corresponds to 25-40 picograms per ml HIV p24 antigen in the supernatant).
In the assay, the HIV stocks prepared as above were diluted to the correct MOI and the PBM are added to 24 well plates at a concentration of 2×10^6 per ml. One μl total volume is added to each well. The peptide to be tested is added in growth medium to achieve the final desired concentration. Then the appropriate number of MOI are added. To assay viral growth, 200 μl of supernatant is removed on days 3 and 7 and the concentration of p24 antigen is determined using a commercial assay (Coulter Immunology, Hialeah, Fla.). Controls include duplicate wells containing cells alone, cells plus peptide at 5 μg/ml cells with virus but not peptide and cells with virus in the presence of AZT at 10^−5 M-10^−8 M.

[9] = tested on: Trichomonas vaginallis strain C1 (ATCC 30001); strains MR and TV; experiment: Trichomonas vaginallis exposure assay; conditions: strains MR and TV; 100 and 50 μg/ml
[10] = radial diffusion, underlay agar pH 6.5

Compound: CC[C@H](C)[C@@H]1NC(=O)[C@H](CCCNC(=N)N)NC(=O)[C@@H]2CSSC[C@@H]3NC(=O)[C@H](C)NC(=O)[C@@H](NC(=O)[C@@H](NC(=O)[C@@H](N)C(C)C)C(C)C)CSSC[C@@H](C(=O)N[C@@H](CCCNC(=N)N)C(=O)N[C@@H](CCCNC(=N)N)C(=O)O)NC(=O)[C@H](CSSC[C@H](NC(=O)[C@H](CC(C)C)NC(=O)[C@H](C)NC(=O)[C@H](CCCNC(=N)N)NC(=O)[C@H](CCCNC(=N)N)NC3=O)C(=O)N[C@@H](CC(C)C)C(=O)N3CCC[C@H]3C(=O)N[C@@H](CCCNC(=N)N)C(=O)N[C@@H](CCC(=O)O)C(=O)N[C@@H](CCCNC(=N)N)C(=O)N[C@@H](CCCNC(=N)N)C(=O)N[C@@H](C)C(=O)NCC(=O)N[C@@H](Cc3ccccc3)C(=O)N2)NC(=O)[C@H](CC(C)C)NC(=O)[C@@H]2CCCN2C(=O)[C@H](Cc2c[nH]cn2)NC(=O)[C@H]([C@@H](C)CC)NC(=O)[C@H](CCCNC(=N)N)NC(=O)CNC(=O)[C@H](CCCNC(=N)N)NC1=O [NP-1, reference compound] (H-VVCACRRALCLPRERRAGFCRIRGRIHPLCCRR-OH; disulfide 3-31, 5-20, 10-30; N-terminus and C-terminus assumed)
- activity against E. coli in NaCl (FIG. 5b) (E. coli ML-35P; in the presence of 100 mM NaCl): Neither NP-1 nor HNP-1 have this property
- activity against Candida albicans in fetal calf serum (FIG. 5c) (C. albicans, strain 820; 90% fetal calf serum): lose their ability to inactivate C. albicans
- activity against C. albicans in NaCl (FIG. 5a) (C. albicans, strain 820; in the presence of 100 mM NaCl): Neither NP-1 nor HNP-1 have this property
- ESTIMATED MINIMAL FUNGICIDAL CONCENTRATIONS [1]: 35.0 µg/mL
- ESTIMATED MINIMAL FUNGICIDAL CONCENTRATIONS (Candida albicans; 25 mM borate buffer): 23.0 µg/mL
- ESTIMATED MINIMAL FUNGICIDAL CONCENTRATIONS (Candida albicans; borate buffer + 120 mM NaCl): 60.0 µg/mL
- ESTIMATED MINIMAL FUNGICIDAL CONCENTRATIONS (Candida albicans; borate buffer + EDTA & NaCl): 65.0 µg/mL
- ESTIMATED MINIMAL BACTERICIDAL CONCENTRATIONS (L. monocytogenes; 25 mM borate buffer): 20.0 µg/mL
- ESTIMATED MINIMAL BACTERICIDAL CONCENTRATIONS (L. monocytogenes; borate buffer + 120 mM NaCl): 11.0 µg/mL
- ESTIMATED MINIMAL BACTERICIDAL CONCENTRATIONS (L. monocytogenes; borate buffer + EDTA & NaCl): 3.8 µg/mL

Compound: CC(C)C[C@H](NC(=O)[C@H](CCCNC(=N)N)NC(=O)CNC(=O)CNC(=O)[C@@H](N)CCCNC(=N)N)C(=O)N[C@H]1CSSC[C@@H](C(=O)N[C@H](C(=O)NCC(=O)N[C@@H](CCCNC(=N)N)C(N)=O)C(C)C)NC(=O)[C@H](C(C)C)NC(=O)[C@@H]2CSSC[C@H](NC(=O)[C@H](Cc3ccc(O)cc3)NC1=O)C(=O)N[C@@H](CCCNC(=N)N)C(=O)N[C@@H](CCCNC(=N)N)C(=O)N[C@@H](CCCNC(=N)N)C(=O)N[C@@H](Cc1ccccc1)C(=O)N2 [synthetic PG-1]
- minimal bacteriocidal concentration ([2]; absence of serum): approximately 1.0 μg/ml
- minimal bacteriocidal concentration ([2]; presence of […] normal human serum): about 0.1 μg/ml

Compound: R-G-G-G-L-C-Y-A-R-G-F-I-A-V-C-F-G-R (RGGGLCYARGFIAVCFGR-NH2; not fully specified; printed as R-G-G-G-L-C-Y-A-R-G-F-I-A-V-C-F-G-R; cysteine pairing not given here) [IB-216]
- minimal inhibitory concentration (MIC) MRSA [3]: 19
- minimal inhibitory concentration (MIC) Psa [4]: 14
- minimal inhibitory concentration (MIC) Candid [5]: 65.8
- minimal inhibitory concentration (MIC) E. Co (Escherichia coli (E. Co)): 3.27

Compound: R-G-G-G-L-C-Y-A-R-G-W-I-A-F-C-V-G-R (RGGGLCYARGWIAFCVGR-NH2; cysteine pairing not given here) [IB-214]
- minimal inhibitory concentration (MIC) MRSA [3]: 2.1
- minimal inhibitory concentration (MIC) Psa [4]: 0.59
- minimal inhibitory concentration (MIC) Candid [5]: 32.6
- minimal inhibitory concentration (MIC) E. Co (Escherichia coli (E. Co)): 0.81

Compound: R-G-G-G-L-C-Y-C-R-R-P-F-C-V-C-V-G-R (RGGGLCYCRRPFCVCVGR-NH2; cysteine pairing not given here) [IB-224]
- minimal inhibitory concentration (MIC) MRSA [3]: 3.1
- minimal inhibitory concentration (MIC) Psa [4]: 0.06
- minimal inhibitory concentration (MIC) Candid [5]: 7.69
- minimal inhibitory concentration (MIC) E. Co (Escherichia coli (E. Co)): 0.15

Compound: R-G-G-R-L-C-Y-C-R-P-R-F-C-V-C-V-G-R (RGGRLCYCRPRFCVCVGR-NH2; cysteine pairing not given here) [PG-5]
- antimicrobial activity against E. coli compared to synthetic PG-1 (FIGS. 11a-11c) (E. coli ML-35P): comparable antimicrobial activity to PG-1
- antimicrobial activity against L. monocytogenes compared to synthetic PG-1 (FIGS. 11a-11c) [6]: comparable antimicrobial activity to PG-1
- antimicrobial activity against C. albicans compared to synthetic PG-1 (FIGS. 11a-11c) (C. albicans, strain 820): comparable antimicrobial activity to PG-1

Compound: R-G-G-R-L-C-Y-C-R-R-R-F-C-I-C-V (RGGRLCYCRRRFCICV) [PG-2]
- antibacterial activity against E. coli (FIG. 4a) (E. coli ML-35P; [10]): effective against the three organisms tested but was not as active as the other two peptides
- antibacterial activity against Listeria monocytogenes (FIG. 4b) [6, 10]: effective against the three organisms tested but was not as active as the other two peptides
- antifungal activity against Candida albicans (FIG. 4c) (C. albicans, strain 820; [10]): effective against the three organisms tested but was not as active as the other two peptides
- gel formation in LAL test ([7]; 1.0 μg peptide in 0.2 ml): no gel
- gel formation in LAL test ([7]; 2.5 μg peptide in 0.2 ml): no gel
- gel formation in LAL test ([7]; 5 μg peptide in 0.2 ml): no gel
- gel formation in LAL test ([7]; 10 μg peptide in 0.2 ml): no gel
- reduction in CFU per ml [8]: 2.6 fold
- anti-HIV activity level relative to PG-1 (HIVJR-CSF and HIVJR-FL): approximately 5 fold less

Compound: R-G-G-R-L-C-Y-C-R-R-R-F-C-V-C-V-G-R (all †) ([dR]GG[dR][dL][dC][dY][dC][dR][dR][dR][dF][dC][dV][dC][dV]G[dR]-NH2; cysteine pairing not given here) [enantioPG-1]
- inhibition of growth of E. coli (FIG. 12a) (E. coli ML-35P; absence of protease): equally effective
- antibacterial effect in presence of protease (FIG. 12b) (E. coli ML-35P; trypsin or chymotrypsin, organism of FIG. 12b not stated): neither trypsin nor chymotrypsin inhibits the antibacterial effect
- susceptibility of metronidazole-resistant clinical isolates [9]: susceptible

Compound: R-G-G-R-L-C-Y-C-R-R-R-F-C-V-C-V-G-R-OH (RGGRLCYCRRRFCVCVGR-OH; cysteine pairing not given here) [IB-247]
- minimal inhibitory concentration (MIC) MRSA [3]: 1.5
- minimal inhibitory concentration (MIC) Psa [4]: 0.11
- minimal inhibitory concentration (MIC) Candid [5]: 1.2
- minimal inhibitory concentration (MIC) E. Co (Escherichia coli (E. Co)): 0.6

Compound: lysozyme [reference compound]
- ESTIMATED MINIMAL FUNGICIDAL CONCENTRATIONS [1]: 75.0 µg/mL
